Key:
Format in all cases: in vivo
[1] = system: palmer (palmer amaranth, palmer pigweed, Amaranthus palmeri); assay: Test A postemergence application, visual injury rating 0-100; conditions: Postemergence
From the text: (§1) Seeds of plant species selected from barnyardgrass (Echinochloa crus-galli), blackgrass (Alopecurus myosuroides), corn (Zea mays), foxtail, giant (giant foxtail, Setaria faberi), green foxtail (Setaria viridis), goosegrass (Eleusine indica), kochia (Bassia scoparia), oat, wild (wild oat, Avena fatua), palmer (palmer amaranth, palmer pigweed, Amaranthus palmeri), ragweed (common ragweed, Ambrosia artemisiifolia), ryegrass, Italian (italian ryegrass, Lolium multiflorum), soybean (Glycine max) and wheat (Triticum aestivum) were planted into a blend of loam soil and sand and treated preemergence with a directed soil spray using test chemicals formulated in a non-phytotoxic solvent mixture which included a surfactant.
(§2) At the same time, plants selected from these crops and weed species and also galium (catchweed bedstraw, Galium aparine) and horseweed (Erigeron canadensis) were planted in pots containing the same blend of loam soil and sand and treated with postemergence applications of test chemicals formulated in the same manner. Plants ranged in height from 2 to 10 cm and were in the one- to two-leaf stage for the postemergence treatment. Treated plants and untreated controls were maintained in a greenhouse for 10 days, after which time all treated plants were compared to untreated controls and visually evaluated for injury. Plant response ratings, summarized in Table A, are based on a 0 to 100 scale where 0 is no effect and 100 is complete control. A dash (-) response means no test result.

[2] = system: wheat (Triticum aestivum); assay: as above; conditions: Postemergence
From the text: as §1, §2

kochia (Bassia scoparia) [3] = assay: as above; conditions: Postemergence
From the text: as §1, §2

corn (Zea mays) [4] = assay: as above; conditions: Postemergence
From the text: as §1, §2

[5] = system: oat, wild (wild oat, Avena fatua); assay: as above; conditions: Postemergence
From the text: as §1, §2

[6] = system: blackgrass (Alopecurus myosuroides); assay: as above; conditions: Postemergence
From the text: as §1, §2

[7] = system: barnyardgrass (Echinochloa crus-galli); assay: as above; conditions: Postemergence
From the text: as §1, §2

[8] = system: galium (catchweed bedstraw, Galium aparine); assay: as above; conditions: Postemergence
From the text: as §1, §2

soybean (Glycine max) [9] = assay: as above; conditions: Postemergence
From the text: as §1, §2

[10] = system: ryegrass, Italian (italian ryegrass, Lolium multiflorum); assay: as above; conditions: Postemergence
From the text: as §1, §2

[11] = system: ragweed (common ragweed, Ambrosia artemisiifolia); assay: as above; conditions: Postemergence
From the text: as §1, §2

[12] = system: horseweed (Erigeron canadensis); assay: as above; conditions: Postemergence
From the text: as §1, §2

[13] = system: palmer (palmer amaranth, palmer pigweed, Amaranthus palmeri); assay: Test A preemergence soil spray, visual injury rating 0-100; conditions: 10 days; for Amaranth, Palmer (Pigweed, Palmer) plant response rating: 31 g ai/ha, 0 to 100 scale; for Amaranth, Palmer plant response rating (0 to 100 scale): 125 g ai/ha, 0 = no effect, 100 = complete control
From the text: as §1, §2

[14] = system: wheat (Triticum aestivum); assay: as above; conditions: 10 days; for Wheat plant response rating: 31 g ai/ha, 0 to 100 scale; for Wheat plant response rating (0 to 100 scale): 125 g ai/ha, 0 = no effect, 100 = complete control
From the text: as §1, §2

kochia (Bassia scoparia) [15] = assay: as above; conditions: 10 days; for Kochia plant response rating: 31 g ai/ha, 0 to 100 scale; for Kochia plant response rating (0 to 100 scale): 125 g ai/ha, 0 = no effect, 100 = complete control
From the text: as §1, §2

corn (Zea mays) [16] = assay: as above; conditions: 10 days; for Corn plant response rating: 31 g ai/ha, 0 to 100 scale; for Corn plant response rating (0 to 100 scale): 125 g ai/ha, 0 = no effect, 100 = complete control
From the text: as §1, §2

[17] = system: oat, wild (wild oat, Avena fatua); assay: as above; conditions: 10 days; for Oat, Wild plant response rating: 31 g ai/ha, 0 to 100 scale; for Oat, Wild plant response rating (0 to 100 scale): 125 g ai/ha, 0 = no effect, 100 = complete control
From the text: as §1, §2

[18] = system: blackgrass (Alopecurus myosuroides); assay: as above; conditions: 10 days; for Blackgrass plant response rating: 31 g ai/ha, 0 to 100 scale; for Blackgrass plant response rating (0 to 100 scale): 125 g ai/ha, 0 = no effect, 100 = complete control
From the text: as §1, §2

[19] = system: barnyardgrass (Echinochloa crus-galli); assay: as above; conditions: 10 days; for Barnyardgrass plant response rating: 31 g ai/ha, 0 to 100 scale; for Barnyardgrass plant response rating (0 to 100 scale): 125 g ai/ha, 0 = no effect, 100 = complete control
From the text: as §1, §2

soybean (Glycine max) [20] = assay: as above; conditions: 10 days; for Soybean plant response rating: 31 g ai/ha, 0 to 100 scale; for Soybean plant response rating (0 to 100 scale): 125 g ai/ha, 0 = no effect, 100 = complete control
From the text: as §1, §2

[21] = system: ryegrass, Italian (italian ryegrass, Lolium multiflorum); assay: as above; conditions: 10 days; for Ryegrass, Italian plant response rating: 31 g ai/ha, 0 to 100 scale; for Ryegrass, Italian plant response rating (0 to 100 scale): 125 g ai/ha, 0 = no effect, 100 = complete control
From the text: as §1, §2

[22] = system: ragweed (common ragweed, Ambrosia artemisiifolia); assay: as above; conditions: 10 days; for Ragweed plant response rating: 31 g ai/ha, 0 to 100 scale; for Ragweed plant response rating (0 to 100 scale): 125 g ai/ha, 0 = no effect, 100 = complete control
From the text: as §1, §2

[23] = 31 g ai/ha, greenhouse 10 days, 0 no effect, 100 complete control
[24] = 125 g ai/ha, 10 days, 0 is no effect, 100 is complete control

CCS(=O)(=O)NC(=O)C1C=CC(NC(=O)C2(C)CN(c3cc(Cl)cc(Cl)c3)C(=O)O2)C1 (stereo not shown) [Compound 83]
20: Corn plant response rating (0 to 100 scale) (corn (Zea mays) [4]; [23]) | Soybean plant response rating (0 to 100 scale) (soybean (Glycine max) [9]; [23]) | Horseweed plant response rating (0 to 100 scale) [12, 23] | Ragweed plant response rating (0 to 100 scale) [22]
0: Wheat plant response rating [14] | Kochia plant response rating (kochia (Bassia scoparia) [15]) | Corn plant response rating (corn (Zea mays) [16]) | Oat, Wild plant response rating [17] | Blackgrass plant response rating [18] | Ragweed plant response rating [22]
10: Soybean plant response rating (0 to 100 scale) (soybean (Glycine max) [20])
100: Amaranth, Palmer plant response rating (0 to 100 scale) [13]
60: Blackgrass plant response rating (0 to 100 scale) [6, 23] | Soybean plant response rating (0 to 100 scale) (soybean (Glycine max) [9]; [24]) | Ryegrass, Italian plant response rating (0 to 100 scale) [10, 23] | Ragweed plant response rating (0 to 100 scale) [11, 23] | Wheat plant response rating (0 to 100 scale) [14] | Corn plant response rating (0 to 100 scale) (corn (Zea mays) [16]) | Oat, Wild plant response rating (0 to 100 scale) [17] | Ryegrass, Italian plant response rating [21]
40: Blackgrass plant response rating (0 to 100 scale) [18] | Soybean plant response rating (soybean (Glycine max) [20])
70: Kochia plant response rating (0 to 100 scale) (kochia (Bassia scoparia) [3]; [23]) | Kochia plant response rating (0 to 100 scale) (kochia (Bassia scoparia) [3]; [24]) | Ryegrass, Italian plant response rating (0 to 100 scale) [10, 24] | Horseweed plant response rating (0 to 100 scale) [12, 24] | Amaranth, Palmer (Pigweed, Palmer) plant response rating [13] | Barnyardgrass plant response rating (0 to 100 scale) [19]
90: Amaranth, Palmer / Pigweed, Palmer plant response rating (0 to 100 scale) [1, 24] | Wheat plant response rating (0 to 100 scale) [2, 23] | Wheat plant response rating (0 to 100 scale) [2, 24] | Corn plant response rating (0 to 100 scale) (corn (Zea mays) [4]; [24]) | Oat, Wild plant response rating (0 to 100 scale) [5, 24] | Blackgrass plant response rating (0 to 100 scale) [6, 24] | Barnyardgrass plant response rating (0 to 100 scale) [7, 23] | Barnyardgrass plant response rating (0 to 100 scale) [7, 24] | Kochia plant response rating (0 to 100 scale) (kochia (Bassia scoparia) [15])
80: Amaranth, Palmer / Pigweed, Palmer plant response rating (0 to 100 scale) [1, 23] | Oat, Wild plant response rating (0 to 100 scale) [5, 23] | Galium plant response rating (0 to 100 scale) [8, 23] | Galium plant response rating (0 to 100 scale) [8, 24] | Ragweed plant response rating (0 to 100 scale) [11, 24] | Ryegrass, Italian plant response rating (0 to 100 scale) [21]
30: Barnyardgrass plant response rating [19]

CC1(C(=O)NC2C=CC(C(=O)NS(=O)(=O)C3CC3)C2)CN(c2cc(Cl)cc(Cl)c2)C(=O)O1 (stereo not shown) [Compound 85]
70: Kochia plant response rating (0 to 100 scale) (kochia (Bassia scoparia) [3]; [24]) | Ryegrass, Italian plant response rating (0 to 100 scale) [10, 24]
30: Ragweed plant response rating (0 to 100 scale) [11, 23] | Corn plant response rating (0 to 100 scale) (corn (Zea mays) [16]) | Ragweed plant response rating [22]
0: Wheat plant response rating [14] | Corn plant response rating (corn (Zea mays) [16]) | Blackgrass plant response rating [18] | Soybean plant response rating (soybean (Glycine max) [20])
50: Kochia plant response rating (0 to 100 scale) (kochia (Bassia scoparia) [3]; [23]) | Galium plant response rating (0 to 100 scale) [8, 23] | Oat, Wild plant response rating (0 to 100 scale) [17]
80: Wheat plant response rating (0 to 100 scale) [2, 23] | Oat, Wild plant response rating (0 to 100 scale) [5, 23] | Blackgrass plant response rating (0 to 100 scale) [6, 24] | Galium plant response rating (0 to 100 scale) [8, 24] | Amaranth, Palmer (Pigweed, Palmer) plant response rating [13] | Ryegrass, Italian plant response rating (0 to 100 scale) [21]
90: Amaranth, Palmer / Pigweed, Palmer plant response rating (0 to 100 scale) [1, 24] | Wheat plant response rating (0 to 100 scale) [2, 24] | Corn plant response rating (0 to 100 scale) (corn (Zea mays) [4]; [24]) | Oat, Wild plant response rating (0 to 100 scale) [5, 24] | Barnyardgrass plant response rating (0 to 100 scale) [7, 23] | Barnyardgrass plant response rating (0 to 100 scale) [7, 24] | Amaranth, Palmer plant response rating (0 to 100 scale) [13] | Wheat plant response rating (0 to 100 scale) [14] | Kochia plant response rating (0 to 100 scale) (kochia (Bassia scoparia) [15]) | Barnyardgrass plant response rating (0 to 100 scale) [19]
10: Soybean plant response rating (0 to 100 scale) (soybean (Glycine max) [20])
40: Amaranth, Palmer / Pigweed, Palmer plant response rating (0 to 100 scale) [1, 23] | Soybean plant response rating (0 to 100 scale) (soybean (Glycine max) [9]; [23])
20: Corn plant response rating (0 to 100 scale) (corn (Zea mays) [4]; [23]) | Kochia plant response rating (kochia (Bassia scoparia) [15]) | Oat, Wild plant response rating [17] | Blackgrass plant response rating (0 to 100 scale) [18] | Barnyardgrass plant response rating [19] | Ragweed plant response rating (0 to 100 scale) [22]
60: Blackgrass plant response rating (0 to 100 scale) [6, 23] | Soybean plant response rating (0 to 100 scale) (soybean (Glycine max) [9]; [24]) | Ryegrass, Italian plant response rating (0 to 100 scale) [10, 23] | Ragweed plant response rating (0 to 100 scale) [11, 24] | Horseweed plant response rating (0 to 100 scale) [12, 23] | Horseweed plant response rating (0 to 100 scale) [12, 24] | Ryegrass, Italian plant response rating [21]

— patent US20260285850A1, “SUBSTITUTED OXAZOLIDINONES AND IMIDAZOLINONES AS HERBICIDES” (FMC CORPORATION, priority 2023, published 2026)
